{"source": "patent US20080261895A1", "about": "(Wyeth, priority 2006, published 2008)", "key": {"[1]": {"experiment": "Stability of [14C]DVS in control rat plasma", "format": "in vitro ADME", "details": "37° C.", "description": "The stability of [^14C]DVS in rat plasma was determined. [^14C]DVS (0.01 mg/mL, final concentration) was added to control rat plasma and incubated in a shaking water bath set to 37° C. Aliquots (0.5 mL) were removed at 0, 1, 4, 8 and 24 hours. Samples were extracted as described above and radiopurity assayed by HPLC analysis."}, "[2]": {"experiment": "Whole blood and plasma radioactivity and partitioning after single oral [14C]DVS, rats", "format": "in vivo, Sprague Dawley rats", "details": "single oral 20 mg/kg; for Radioactivity in Plasma, Individual Rats / Radioactivity in Plasma, Mean ± S.D. / Radioactivity in Whole Blood, Individual Rats: listed as [^14C]DVS, 20 mg/kg", "excerpt": "Sprague Dawley rats (12 male and 6 female), weighing between 0.311 and 0.345 kg for males and between 0.263 and 0.311 kg for females at the time of dosing, were used. Animals were given food and water ad libitum. For ease of reporting, the animals were designated numbers 001M through 012M for the male rats and 001F through 006F for the female rats. Three animals from the last time point, for each sex, were housed individually in metabolism cages for the collection of urine and feces. The other animals were housed individually in standard cages.\nThe oral dosing solution was prepared by combining 86.4 mL of 3.0 mg/mL (2.0 mg/mL, free base) unlabeled DVS solution with 3.6 mL of 4.3 mg/mL (3.0 mg/mL free base) [^14C]DVS solution. Solutions were prepared in 0.25% polysorbate 80, 0.5% methylcellulose in water. The radiochemical purity, specific activity and concentration of [^14C]DVS (bulk drug and dosing solution) were determined using HPLC with radiometric detection. Aliquots of the dosing solution were taken pre-, mid-, and post-dose for the determination of specific activity and radioactivity concentrations of dosing solution.\nWhole blood (approximately 5 mL) was collected by cardiac puncture into heparinized tubes at the appropriate time points (1, 4, 8, and 24 hours for male rats, and 1 and 8 hours for female rats, N=3 for each sex at each time point). Triplicate aliquots (200 μL) of whole blood were placed into combusto-cones, weighed and allowed to air dry. These samples were oxidized. The remaining blood was centrifuged at 5000×g and 4° C. for 10 minutes (Model Legend RT centrifuge, Sorvall). The resulting plasma was transferred to fresh tubes and triplicate aliquots (100 μL) were analyzed for radioactivity content. The remaining plasma was stored at −70° C. until metabolite analysis.\nBlood samples and fecal homogenates were oxidized in a Model 307 Tri-Carb sample oxidizer, using Carbosorb® E (6 mL) as trapping agent and PermaFluor® E^+ (10 mL) as scintillant. Oxidation efficiency was determined by oxidation of C-Spec-Chec (Perkin Elmer), a standard of known radioactivity, and determined to be 98.7%. The background reading (average of control blood or fecal samples) was subtracted from each sample reading. Aliquots of urine and plasma were analyzed directly following the addition of 10 mL of Ultima Gold™ scintillation fluid.\nAll radioactivity determinations were made using a Tri-Carb Model 3100TR liquid scintillation counter (Perkin Elmer) with an Ultima Gold™ or toluene standard curve. Counts per minute (CPM) were converted to disintegrations per minute (DPM) by use of external standards of known radioactivity. The quench of each standard was determined by the transformed spectral index of an external radioactive standard (tSIE). The lower limits of detection were defined as twice background."}, "[3]": {"experiment": "Stability of [14C]DVS in control rat urine", "format": "in vitro ADME", "details": "37° C.", "description": "The stability of [^14C]DVS in rat urine was determined. [^14C]DVS (0.13 mg/mL, final concentration) was added to control rat urine and incubated in a shaking water bath set to 37° C. Aliquots (0.5 mL) were removed at 0, 1, 4, 8 and 24 hours. Samples were extracted as described above and radiopurity assayed by HPLC analysis."}, "[4]": {"system": "norepinephrine levels in the brains", "experiment": "Norepinephrine levels in the brains of rats", "format": "in vivo", "details": "30 mg/kg (free base), administered subcutaneously, male Sprague Dawley rats"}, "[5]": {"experiment": "Urinary excretion and metabolite profile by radiochromatography, rats", "format": "in vivo, Sprague Dawley rats", "details": "for Compounds Detected by Radiochromatography in urine (Mean ± S.D., n = 3), percent of total peaks / Radioactivity as % of Dose in urine, Mean ± S.D. / Radioactivity as % of Dose in urine, Individuals: single oral 20 mg/kg; for Radioactivity as % of Dose in urine, Individuals: listed as [^14C]DVS, 20 mg/kg", "description": "Urine and feces were collected separately on dry ice from three animals per sex. Collections were from 0-8 and 8-24 hours for male rats and 0-8 hours for female rats. Fecal samples were homogenized in approximately five volumes (v/w) of water. Aliquots of approximately 0.4 grams of the homogenate were placed into combusto-cones, weighed and allowed to air dry. These samples were then oxidized. The remaining urine samples and fecal homogenates were stored at −70° C. until metabolite analysis.\nAll urine samples were analyzed for metabolite profiles. Aliquots of 0.5 mL urine were centrifuged at 3500 rpm and 4° C. in a Sorvall Super 21 centrifuge for 10 minutes. The supernatant was transferred to a fresh tube and analyzed for radioactivity content and by HPLC for profiling. Selected samples were also analyzed by LC/MS to characterize the radioactive peaks.\nChromatographic analyses were performed with a Waters Alliance model 2690 HPLC system (Waters Corp., Milford, Mass.). It was equipped with a built-in autosampler and was in-line with a model 2487 tunable UV detector, set to monitor 225 nm, and a FloOne β Model 525 radioactivity flow detector (Perkin Elmer) with a 250 μL LQTR flow cell. The flow rate of Ultima Flow M scintillation fluid was 1 mL/min, providing a mixing ratio of scintillation cocktail to mobile phase of 5:1. Separation of the metabolite peaks was accomplished on a Phenomenex Luna C18(2) column, 150×2.0 mm, 5 micron (Phenomenex, Torrance, Calif.), using a linear gradient of two mobile phases, A and B. Mobile phase A was 10 mM ammonium acetate, pH 6.0, and mobile phase B was acetonitrile. The flow rate was 0.2 mL/min."}}, "note": "Values joined by “and” are separate entries in the source; they are usually repeats but may differ in a detail not shown here. Equal entries are not always repeated.", "data": [{"smiles": "CN(C)CC(c1ccc(O)cc1)C1(O)CCCCC1.O=C(O)CCC(=O)O", "note": "(stereo not shown) [DVS, O-desmethylvenlafaxine succinate]", "values": [{"measurement": "radiopurity of [14C]DVS in rat plasma", "setting": "[1]; all time points up to 24 hours", "result": "greater than 98.9%"}, {"measurement": "Stability of [14C]DVS in control rat plasma", "setting": "[1]; up to 24 hours", "result": "stable"}, {"measurement": "Radioactivity in Whole Blood, Mean ± S.D.", "setting": "[2]; 1 hr, female", "result": "6.18 ± 0.74", "unit": "μg equivalents/mL"}, {"measurement": "Radioactivity in Plasma, Individual Rats", "setting": "[2]; 1 hr, female", "result": "9.61 μg equivalents/mL and 8.74 μg equivalents/mL and 11.3 μg equivalents/mL"}, {"measurement": "Radioactivity in Plasma, Mean ± S.D.", "setting": "[2]; 1 hr, female", "result": "9.90 μg equivalents/mL and 9.90 ± 1.2 μg equivalents/mL"}, {"measurement": "Radioactivity in Whole Blood, Individual Rats", "setting": "[2]; 1 hr, female", "result": "5.63 μg equivalents/mL and 5.76 μg equivalents/mL and 7.15 μg equivalents/mL"}, {"measurement": "Radioactivity in Whole Blood, Mean ± S.D.", "setting": "[2]; 1 hr, male", "result": "6.87 ± 1.50", "unit": "μg equivalents/mL"}, {"measurement": "Radioactivity in Plasma, Individual Rats", "setting": "[2]; 1 hr, male", "result": "10.4 μg equivalents/mL and 8.90 μg equivalents/mL and 13.7 μg equivalents/mL"}, {"measurement": "Radioactivity in Plasma, Mean ± S.D.", "setting": "[2]; 1 hr, male", "result": "11.0 μg equivalents/mL and 11.0 ± 2.2 μg equivalents/mL"}, {"measurement": "Radioactivity in Whole Blood, Individual Rats", "setting": "[2]; 1 hr, male", "result": "6.11 μg equivalents/mL and 5.66 μg equivalents/mL and 8.85 μg equivalents/mL"}, {"measurement": "Radioactivity in Whole Blood, Mean ± S.D.", "setting": "[2]; 4 hr, male", "result": "0.88 ± 0.12", "unit": "μg equivalents/mL"}, {"measurement": "Radioactivity in Plasma, Individual Rats", "setting": "[2]; 4 hr, male", "result": "1.59 μg equivalents/mL and 1.62 μg equivalents/mL and 1.22 μg equivalents/mL"}, {"measurement": "Radioactivity in Plasma, Mean ± S.D.", "setting": "[2]; 4 hr, male", "result": "1.48 μg equivalents/mL and 1.48 ± 0.20 μg equivalents/mL"}, {"measurement": "Radioactivity in Whole Blood, Individual Rats", "setting": "[2]; 4 hr, male", "result": "0.95 μg equivalents/mL and 0.96 μg equivalents/mL and 0.72 μg equivalents/mL"}, {"measurement": "Radioactivity in Whole Blood, Mean ± S.D.", "setting": "[2]; 8 hr, female", "result": "0.58 ± 0.07", "unit": "μg equivalents/mL"}, {"measurement": "Radioactivity in Plasma, Individual Rats", "setting": "[2]; 8 hr, female", "result": "0.86 μg equivalents/mL and 0.82 μg equivalents/mL and 1.08 μg equivalents/mL"}, {"measurement": "Radioactivity in Plasma, Mean ± S.D.", "setting": "[2]; 8 hr, female", "result": "0.92 μg equivalents/mL and 0.92 ± 0.12 μg equivalents/mL"}, {"measurement": "Radioactivity in Whole Blood, Individual Rats", "setting": "[2]; 8 hr, female", "result": "0.59 μg equivalents/mL and 0.50 μg equivalents/mL and 0.66 μg equivalents/mL"}, {"measurement": "Radioactivity in Whole Blood, Mean ± S.D.", "setting": "[2]; 8 hr, male", "result": "0.59 ± 0.18", "unit": "μg equivalents/mL"}, {"measurement": "Radioactivity in Plasma, Individual Rats", "setting": "[2]; 8 hr, male", "result": "0.53 μg equivalents/mL and 1.10 μg equivalents/mL and 1.05 μg equivalents/mL"}, {"measurement": "Radioactivity in Plasma, Mean ± S.D.", "setting": "[2]; 8 hr, male", "result": "0.89 μg equivalents/mL and 0.89 ± 0.27 μg equivalents/mL"}, {"measurement": "Radioactivity in Whole Blood, Individual Rats", "setting": "[2]; 8 hr, male", "result": "0.35 μg equivalents/mL and 0.71 μg equivalents/mL (2×)"}, {"measurement": "Radioactivity in Whole Blood, Mean ± S.D.", "setting": "[2]; 24 hr, male", "result": "0.07 ± 0.01", "unit": "μg equivalents/mL"}, {"measurement": "Radioactivity in Plasma, Individual Rats", "setting": "[2]; 24 hr, male", "result": "0.07 μg equivalents/mL and 0.08 μg equivalents/mL and 0.05 μg equivalents/mL"}, {"measurement": "Radioactivity in Plasma, Mean ± S.D.", "setting": "[2]; 24 hr, male", "result": "0.07 μg equivalents/mL and 0.07 ± 0.01 μg equivalents/mL"}, {"measurement": "Radioactivity in Whole Blood, Individual Rats", "setting": "[2]; 24 hr, male", "result": "0.06 μg equivalents/mL and 0.08 μg equivalents/mL and 0.05 μg equivalents/mL"}, {"measurement": "radiopurity of [14C]DVS in rat urine", "setting": "[3]; all time points up to 24 hours", "result": "greater than 99.5%"}, {"measurement": "Stability of [14C]DVS in control rat urine", "setting": "[3]; up to 24 hours", "result": "stable"}, {"measurement": "norepinephrine levels in the brains", "setting": "[4]", "result": "significantly increased"}, {"measurement": "Compounds Detected by Radiochromatography in urine (Mean ± S.D., n = 3), percent of total peaks", "setting": "[5]; 0-8 hr, female", "result": "20.0 ± 3.5", "unit": "%"}, {"measurement": "Radioactivity as % of Dose in urine, Mean ± S.D.", "setting": "[5]; 0-8 hr, female", "result": "54.5 ± 12", "unit": "%"}, {"measurement": "Radioactivity as % of Dose in urine, Individuals", "setting": "[5]; 0-8 hr, female", "result": "53.8% and 42.7% and 67.1%"}, {"measurement": "Compounds Detected by Radiochromatography in urine (Mean ± S.D., n = 3), percent of total peaks", "setting": "[5]; 0-8 hr, male", "result": "10.9 ± 2.1", "unit": "%"}, {"measurement": "Radioactivity as % of Dose in urine, Mean ± S.D.", "setting": "[5]; 0-8 hr, male", "result": "59.1 ± 7.9", "unit": "%"}, {"measurement": "Radioactivity as % of Dose in urine, Individuals", "setting": "[5]; 0-8 hr, male", "result": "60.1% and 50.7% and 66.5%"}, {"measurement": "Compounds Detected by Radiochromatography in urine (Mean ± S.D., n = 3), percent of total peaks", "setting": "[5]; 8-24 hr, male", "result": "9.1 ± 1.1", "unit": "%"}, {"measurement": "Radioactivity as % of Dose in urine, Mean ± S.D.", "setting": "[5]; 8-24 hr, male", "result": "25.5 ± 6.4", "unit": "%"}, {"measurement": "Radioactivity as % of Dose in urine, Individuals", "setting": "[5]; 8-24 hr, male", "result": "24.6% and 32.3% and 19.7%"}, {"measurement": "% of the radioactive dose recovered in urine", "setting": "[5]; within 24 hours post-dose", "result": 85, "unit": "%"}, {"measurement": "% of the radioactive dose recovered in urine", "setting": "[5]; within the first 8 hours post-dose", "result": "greater than 50%"}]}]}
